Experimental data from publication PMC3996874, “Esterase Active in Polar Organic Solvents from the Yeast Pseudozyma sp. NII 08165” (Enzyme Research, 2014).

Tested on: T1, LIP1 esterase
T1 construct: single band of 175 kDa on SDS-PAGE
Test: pNP release at […] nm, Michaelis-Menten fit (GraphPad Prism)
Assay type: biochemical, Pseudozyma sp. NII 08165
Details: pH 8, 60 °C; 0.05-0.7 mM pNPP

Km: 10 µM
SMILES: CCCCCCCCCCCCCCCC(=O)Oc1ccc([N+](=O)[O-])cc1 [para-nitrophenyl palmitate]
